In data set [1] the target is T1, nuclear BCRP (Homo sapiens, UniProt Q9UNQ0).
T1 sequence (Q9UNQ0 1-655): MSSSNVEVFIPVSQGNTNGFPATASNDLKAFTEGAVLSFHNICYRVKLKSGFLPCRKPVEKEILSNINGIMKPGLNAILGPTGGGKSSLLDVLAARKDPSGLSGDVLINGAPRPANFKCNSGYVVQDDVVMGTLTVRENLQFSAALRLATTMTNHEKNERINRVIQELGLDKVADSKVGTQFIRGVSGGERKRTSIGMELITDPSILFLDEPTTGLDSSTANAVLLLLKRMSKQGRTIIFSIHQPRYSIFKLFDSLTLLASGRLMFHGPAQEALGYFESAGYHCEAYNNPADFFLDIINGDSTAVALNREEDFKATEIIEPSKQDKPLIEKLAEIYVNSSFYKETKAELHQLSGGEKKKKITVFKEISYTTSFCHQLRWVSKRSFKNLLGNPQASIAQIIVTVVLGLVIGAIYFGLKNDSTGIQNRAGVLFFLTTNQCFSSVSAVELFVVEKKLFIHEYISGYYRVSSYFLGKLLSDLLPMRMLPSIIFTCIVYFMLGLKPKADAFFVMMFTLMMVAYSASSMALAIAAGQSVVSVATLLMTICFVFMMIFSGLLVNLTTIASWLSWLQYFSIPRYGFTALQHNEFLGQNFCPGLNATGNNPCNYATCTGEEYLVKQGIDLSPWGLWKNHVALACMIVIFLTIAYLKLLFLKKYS
Put plainly: Screening of BCRP ligands, single frontal displacement of etoposide on NMAC. The note with it: NMAC(LN229) column, verapamil in mobile phase, etoposide as marker ligand.

For data set [2], the system named is Pgp, MRP1 and BCRP transporters (LN-229 cellular membranes, open tubular). Put plainly: Frontal affinity chromatography on CMAC. The data set is classed as binding, human. The note with it: read-out: Binding affinity (Kd); CMAC(LN-229)-OT column, ammonium acetate 10 mM pH 7.4, 0.05 mL/min.
In data set [3] the test system is Pgp, MRP1 and BCRP transporters (LN-229 nuclear membranes, open tubular). Put plainly: Frontal affinity chromatography on NMAC. The data set is classed as binding, human. As to conditions: read-out: Binding affinity (Kd); NMAC(LN-229)-OT column, ammonium acetate 10 mM pH 7.4, 0.05 mL/min.
Data set [4] relates to Pgp, MRP1 and BCRP co-immobilized. Put plainly: in vitro. As to conditions: human, pH 7.4, Binding affinity (Kd), NMAC(LN-229)-IAM column, all transporters, ammonium acetate 10 mM pH 7.4, 0.4 mL/min.
The test system of data set [5] is Pgp, MRP1 and BCRP. Put plainly: Frontal affinity chromatography on CMAC. The data set is classed as binding, human. The note with it: human, pH 7.4.
Data set [6] concerns the target T2, BCRP (Homo sapiens, UniProt Q9UNQ0).
T2 sequence (Q9UNQ0 1-655): T1 sequence (Q9UNQ0 1-655)
The data set can be described thus: Selective Kd determination on NMAC. The data set is classed as binding.

Data set [7] deals with MRP1 (Homo sapiens, UniProt P33527). Put plainly: Selective Kd determination on NMAC. The data set is classed as binding.
Data set [8] deals with Pgp, MRP1 and BCRP. The data set can be described thus: Frontal affinity chromatography on NMAC. The data set is classed as binding, human. As to conditions: human, pH 7.4.

Structures are written as SMILES.

MRP1, sequence (P33527 whole entry): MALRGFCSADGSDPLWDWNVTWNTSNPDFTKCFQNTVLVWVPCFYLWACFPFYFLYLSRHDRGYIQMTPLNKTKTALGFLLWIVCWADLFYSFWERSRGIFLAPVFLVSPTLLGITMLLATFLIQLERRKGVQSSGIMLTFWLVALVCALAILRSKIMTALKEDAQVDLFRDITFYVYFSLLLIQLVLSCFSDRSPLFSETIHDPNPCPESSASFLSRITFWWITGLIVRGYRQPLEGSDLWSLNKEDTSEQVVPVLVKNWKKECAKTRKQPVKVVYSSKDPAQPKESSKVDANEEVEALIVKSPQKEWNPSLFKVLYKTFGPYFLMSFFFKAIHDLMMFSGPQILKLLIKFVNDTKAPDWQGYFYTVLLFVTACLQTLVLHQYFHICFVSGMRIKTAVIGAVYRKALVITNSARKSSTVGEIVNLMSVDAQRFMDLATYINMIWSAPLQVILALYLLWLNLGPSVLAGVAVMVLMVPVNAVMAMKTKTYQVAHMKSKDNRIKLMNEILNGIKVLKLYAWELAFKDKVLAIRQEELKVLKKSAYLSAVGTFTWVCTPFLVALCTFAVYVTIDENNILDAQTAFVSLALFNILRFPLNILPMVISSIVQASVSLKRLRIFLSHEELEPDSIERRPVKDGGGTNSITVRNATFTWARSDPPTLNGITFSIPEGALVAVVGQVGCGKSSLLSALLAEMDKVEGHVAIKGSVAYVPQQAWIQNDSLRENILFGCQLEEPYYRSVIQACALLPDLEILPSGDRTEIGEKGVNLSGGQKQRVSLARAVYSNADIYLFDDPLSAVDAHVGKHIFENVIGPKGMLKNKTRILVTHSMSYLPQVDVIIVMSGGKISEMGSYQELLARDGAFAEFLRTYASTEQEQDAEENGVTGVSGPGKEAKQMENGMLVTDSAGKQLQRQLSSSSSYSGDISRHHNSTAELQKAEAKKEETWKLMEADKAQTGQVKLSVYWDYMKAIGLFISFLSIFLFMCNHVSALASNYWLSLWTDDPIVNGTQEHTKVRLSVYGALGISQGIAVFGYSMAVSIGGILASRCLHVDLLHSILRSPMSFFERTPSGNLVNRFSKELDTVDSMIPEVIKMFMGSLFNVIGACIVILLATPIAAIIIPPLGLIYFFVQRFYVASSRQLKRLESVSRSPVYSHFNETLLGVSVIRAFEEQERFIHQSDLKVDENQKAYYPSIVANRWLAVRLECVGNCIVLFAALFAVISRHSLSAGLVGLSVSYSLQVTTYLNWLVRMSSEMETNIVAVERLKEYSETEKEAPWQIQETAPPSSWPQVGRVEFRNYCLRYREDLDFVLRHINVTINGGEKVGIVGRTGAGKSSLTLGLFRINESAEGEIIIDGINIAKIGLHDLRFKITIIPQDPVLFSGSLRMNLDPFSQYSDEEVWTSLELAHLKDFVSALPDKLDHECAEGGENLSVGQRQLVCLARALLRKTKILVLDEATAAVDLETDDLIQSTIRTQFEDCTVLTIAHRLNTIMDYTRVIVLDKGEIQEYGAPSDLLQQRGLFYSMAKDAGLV

For `Cc1cn([C@H]2C[C@H](N=[N+]=[N-])[C@@H](CO)O2)c(=O)[nH]c1=O` [AZT, zidovudine], the “Change in retention of etoposide” value in data set [1] is on record as −5%.

`COc1ccc(-c2coc3cc(O)cc(O)c3c2=O)cc1` [biochanin A]: the equilibrium dissociation constant (Kd) (as a rule, the constant that tells how readily two partners part at equilibrium) in data set [2] came out at 690 ± 170 nM; in data set [3] it was 1750 ± 360 nM.

In the case of `COc1cc([C@@H]2c3cc4c(cc3[C@@H](O[C@@H]3O[C@@H]5CO[C@@H](C)O[C@H]5[C@H](O)[C@H]3O)[C@H]3COC(=O)[C@H]23)OCO4)cc(OC)c1O` [etoposide], the Kd in data set [4] was determined as 3750 ± 970 nM; in data set [5], 2250 ± 490 nM; in data set [6], 1410 ± 540 nM; in data set [7], 4390 ± 1930 nM; in data set [8], 1260 ± 360 nM. Further, the “Reduction of breakthrough volume on addition of 2 μM verapamil” value in data set [6] (0.75 μM etoposide, NMAC(LN-229)-IAM) is listed as ~ 10%; in data set [6] (5 μM etoposide, NMAC(LN-229)-IAM), ~ 15%. Also, the “Breakthrough volume with 2 μM verapamil in mobile phase” value in data set [6] (5 μM etoposide, NMAC(LN-229)-IAM, 2 μM verapamil) is given as 21.01 min.

These data come from publication PMC3998376 (Journal of chromatography. A, 2014).
